Experiment [1] addresses T1, Mitogen-activated protein kinase 14 (Homo sapiens, UniProt Q16539). The experiment can be described thus: Inhibition of p38alpha by immunosorbent based kinase assay.
Experiment [2] addresses T1, Mitogen-activated protein kinase 14. The experiment can be described thus: Inhibition of p38alpha-dependent TNFalpha production in human whole blood.
Experiment [3] addresses RAC-alpha serine/threonine-protein kinase (Homo sapiens) (UniProt P31749). Description: Inhibition of AKT1 at 10 uM.
Experiment [4] deals with T2, Serine/threonine-protein kinase PLK4 (Homo sapiens) (UniProt O00444).
T2 sequence (whole entry): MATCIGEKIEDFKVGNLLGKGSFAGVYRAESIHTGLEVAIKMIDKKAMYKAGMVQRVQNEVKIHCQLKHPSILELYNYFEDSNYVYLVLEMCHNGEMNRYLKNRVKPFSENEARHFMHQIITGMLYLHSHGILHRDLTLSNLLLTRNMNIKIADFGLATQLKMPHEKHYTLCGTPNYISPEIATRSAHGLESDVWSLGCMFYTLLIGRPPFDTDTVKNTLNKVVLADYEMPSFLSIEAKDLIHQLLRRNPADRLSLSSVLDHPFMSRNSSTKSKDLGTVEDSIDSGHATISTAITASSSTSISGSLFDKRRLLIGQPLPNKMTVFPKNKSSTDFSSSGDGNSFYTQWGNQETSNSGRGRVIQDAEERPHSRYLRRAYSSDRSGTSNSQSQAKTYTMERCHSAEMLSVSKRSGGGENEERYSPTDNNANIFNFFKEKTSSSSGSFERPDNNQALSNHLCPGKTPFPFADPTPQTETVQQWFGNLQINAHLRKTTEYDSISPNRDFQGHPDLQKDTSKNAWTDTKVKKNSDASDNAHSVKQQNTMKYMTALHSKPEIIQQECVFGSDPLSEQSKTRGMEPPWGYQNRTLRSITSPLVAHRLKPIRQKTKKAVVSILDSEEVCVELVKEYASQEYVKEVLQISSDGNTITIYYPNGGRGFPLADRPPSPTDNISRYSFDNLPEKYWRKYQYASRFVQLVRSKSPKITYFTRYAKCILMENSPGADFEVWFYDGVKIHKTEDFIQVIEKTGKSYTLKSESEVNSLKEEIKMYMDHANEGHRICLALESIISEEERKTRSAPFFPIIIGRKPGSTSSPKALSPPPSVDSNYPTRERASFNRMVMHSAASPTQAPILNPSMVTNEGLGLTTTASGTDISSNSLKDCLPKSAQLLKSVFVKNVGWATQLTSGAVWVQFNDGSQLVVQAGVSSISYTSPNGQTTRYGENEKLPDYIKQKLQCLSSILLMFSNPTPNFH
Description: Inhibition of SAK at 10 uM.

Experiment [5] has as its target T3, NUAK family SNF1-like kinase 1 (Homo sapiens) (UniProt O60285).
T3 sequence (whole entry): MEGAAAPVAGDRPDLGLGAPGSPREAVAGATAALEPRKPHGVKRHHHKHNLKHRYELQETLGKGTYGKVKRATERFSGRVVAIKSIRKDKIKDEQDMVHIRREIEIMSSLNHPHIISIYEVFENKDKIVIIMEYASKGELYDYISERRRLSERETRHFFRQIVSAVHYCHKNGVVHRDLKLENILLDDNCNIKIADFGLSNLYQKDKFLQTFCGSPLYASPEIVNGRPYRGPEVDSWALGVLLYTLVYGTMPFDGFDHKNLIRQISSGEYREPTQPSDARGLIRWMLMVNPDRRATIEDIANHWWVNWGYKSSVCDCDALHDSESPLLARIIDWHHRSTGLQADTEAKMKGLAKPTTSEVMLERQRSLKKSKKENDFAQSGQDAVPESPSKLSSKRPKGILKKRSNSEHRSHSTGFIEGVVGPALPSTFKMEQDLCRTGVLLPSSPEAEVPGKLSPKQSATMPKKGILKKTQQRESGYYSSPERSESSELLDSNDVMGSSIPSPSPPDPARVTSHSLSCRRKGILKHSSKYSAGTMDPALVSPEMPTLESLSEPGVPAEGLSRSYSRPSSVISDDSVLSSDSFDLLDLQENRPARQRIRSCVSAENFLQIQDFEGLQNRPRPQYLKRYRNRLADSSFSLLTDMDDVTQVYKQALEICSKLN
Description: Inhibition of ARK5 at 10 uM.

For experiment [6], the target named is BDNF/NT-3 growth factors receptor (Homo sapiens) (UniProt Q16620). Description: Inhibition of TRKB at 10 uM.
Experiment [7] deals with Aurora kinase B (Homo sapiens) (UniProt Q96GD4). The experiment can be described thus: Inhibition of AuroraB at 10 uM.
Experiment [8] concerns the target Proto-oncogene tyrosine-protein kinase Src (Homo sapiens) (UniProt P12931). Description: Inhibition of SRC at 10 uM.
Experiment [9] relates to Serine/threonine-protein kinase B-raf (Homo sapiens), P15056 [V600E]. The experiment can be described thus: Inhibition of BRAF V600E mutant at 10 uM.
Experiment [10] addresses Vascular endothelial growth factor receptor 2 (Homo sapiens) (UniProt P35968). The experiment can be described thus: Inhibition of VEGFR2 at 10 uM.
In experiment [11] the target is Insulin receptor (Homo sapiens) (UniProt P06213). The experiment can be described thus: Inhibition of INSR at 10 uM.
In experiment [12] the target is Insulin-like growth factor 1 receptor (Homo sapiens) (UniProt P08069). Description: Inhibition of IGF1R at 10 uM.
Experiment [13] has as its target Hepatocyte growth factor receptor (Homo sapiens) (UniProt P08581). The experiment can be described thus: Inhibition of MET at 10 uM.
Experiment [14] deals with Focal adhesion kinase 1 (Homo sapiens) (UniProt Q05397). Description: Inhibition of FAK at 10 uM.
The target of experiment [15] is Serine/threonine-protein kinase PLK1 (Homo sapiens) (UniProt P53350). Description: Inhibition of PLK1 at 10 uM.
The target in experiment [16] is Tyrosine-protein kinase receptor UFO (Homo sapiens) (UniProt P30530). Description: Inhibition of AXL at 10 uM.
Experiment [17] deals with Serine/threonine-protein kinase N1 (Homo sapiens) (UniProt Q16512). The experiment can be described thus: Inhibition of PRK1 at 10 uM.
The target of experiment [18] is Casein kinase II subunit alpha (Homo sapiens) (UniProt P68400). The experiment can be described thus: Inhibition of CK2alpha1 at 10 uM.

This passage reports IC50 and inhibition results from ChEMBL document CHEMBL2150974 (J Med Chem, 2012).

Active and inactive are the calls of the source. The calls are words filed in the database; no cut-off is given here.

Chain of BDNF/NT-3 growth factors receptor (Homo sapiens) (Q16620 32-822 limits assumed): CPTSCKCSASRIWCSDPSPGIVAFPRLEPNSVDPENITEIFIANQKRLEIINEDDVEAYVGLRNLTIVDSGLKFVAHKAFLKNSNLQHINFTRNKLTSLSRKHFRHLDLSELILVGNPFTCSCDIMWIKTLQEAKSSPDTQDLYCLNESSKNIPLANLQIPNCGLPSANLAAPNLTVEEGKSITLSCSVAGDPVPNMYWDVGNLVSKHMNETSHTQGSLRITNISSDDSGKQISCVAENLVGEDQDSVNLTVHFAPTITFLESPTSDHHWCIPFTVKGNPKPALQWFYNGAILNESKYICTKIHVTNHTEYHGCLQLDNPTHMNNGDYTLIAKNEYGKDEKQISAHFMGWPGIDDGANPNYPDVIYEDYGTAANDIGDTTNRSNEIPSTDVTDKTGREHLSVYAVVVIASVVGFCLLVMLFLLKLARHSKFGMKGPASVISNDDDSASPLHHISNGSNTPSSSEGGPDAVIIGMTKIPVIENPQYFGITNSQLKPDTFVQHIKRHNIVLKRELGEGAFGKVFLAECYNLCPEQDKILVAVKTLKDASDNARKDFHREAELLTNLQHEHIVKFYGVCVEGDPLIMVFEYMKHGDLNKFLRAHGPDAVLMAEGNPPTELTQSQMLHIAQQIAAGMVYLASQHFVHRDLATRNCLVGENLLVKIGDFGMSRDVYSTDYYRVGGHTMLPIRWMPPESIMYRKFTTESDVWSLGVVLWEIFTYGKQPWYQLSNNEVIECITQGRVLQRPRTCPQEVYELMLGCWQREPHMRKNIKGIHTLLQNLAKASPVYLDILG
Chain of Tyrosine-protein kinase receptor UFO (Homo sapiens) (P30530 whole entry): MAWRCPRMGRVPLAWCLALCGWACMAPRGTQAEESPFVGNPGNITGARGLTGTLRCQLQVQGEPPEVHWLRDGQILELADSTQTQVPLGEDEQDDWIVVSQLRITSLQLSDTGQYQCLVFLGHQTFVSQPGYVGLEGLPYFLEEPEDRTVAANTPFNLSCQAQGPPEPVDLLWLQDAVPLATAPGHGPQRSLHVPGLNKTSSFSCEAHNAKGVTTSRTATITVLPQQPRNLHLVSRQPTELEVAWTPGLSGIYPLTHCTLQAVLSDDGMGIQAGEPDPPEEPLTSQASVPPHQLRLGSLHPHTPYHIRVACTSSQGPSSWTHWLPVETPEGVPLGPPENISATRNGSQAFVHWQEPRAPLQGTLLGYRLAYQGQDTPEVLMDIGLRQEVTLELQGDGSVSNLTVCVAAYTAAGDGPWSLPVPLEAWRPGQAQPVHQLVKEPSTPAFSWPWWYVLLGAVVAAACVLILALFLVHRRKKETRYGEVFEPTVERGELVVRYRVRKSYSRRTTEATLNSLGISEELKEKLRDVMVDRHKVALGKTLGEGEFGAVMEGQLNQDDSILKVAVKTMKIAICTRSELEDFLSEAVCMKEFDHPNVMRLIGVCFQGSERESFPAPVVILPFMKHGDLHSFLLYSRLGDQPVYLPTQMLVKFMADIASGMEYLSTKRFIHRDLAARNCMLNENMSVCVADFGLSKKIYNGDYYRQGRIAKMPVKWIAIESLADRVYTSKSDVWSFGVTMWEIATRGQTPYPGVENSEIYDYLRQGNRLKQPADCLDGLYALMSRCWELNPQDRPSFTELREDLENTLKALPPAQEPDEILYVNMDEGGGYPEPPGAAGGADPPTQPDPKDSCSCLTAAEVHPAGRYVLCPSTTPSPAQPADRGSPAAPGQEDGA
Chain of Vascular endothelial growth factor receptor 2 (Homo sapiens) (P35968 whole entry): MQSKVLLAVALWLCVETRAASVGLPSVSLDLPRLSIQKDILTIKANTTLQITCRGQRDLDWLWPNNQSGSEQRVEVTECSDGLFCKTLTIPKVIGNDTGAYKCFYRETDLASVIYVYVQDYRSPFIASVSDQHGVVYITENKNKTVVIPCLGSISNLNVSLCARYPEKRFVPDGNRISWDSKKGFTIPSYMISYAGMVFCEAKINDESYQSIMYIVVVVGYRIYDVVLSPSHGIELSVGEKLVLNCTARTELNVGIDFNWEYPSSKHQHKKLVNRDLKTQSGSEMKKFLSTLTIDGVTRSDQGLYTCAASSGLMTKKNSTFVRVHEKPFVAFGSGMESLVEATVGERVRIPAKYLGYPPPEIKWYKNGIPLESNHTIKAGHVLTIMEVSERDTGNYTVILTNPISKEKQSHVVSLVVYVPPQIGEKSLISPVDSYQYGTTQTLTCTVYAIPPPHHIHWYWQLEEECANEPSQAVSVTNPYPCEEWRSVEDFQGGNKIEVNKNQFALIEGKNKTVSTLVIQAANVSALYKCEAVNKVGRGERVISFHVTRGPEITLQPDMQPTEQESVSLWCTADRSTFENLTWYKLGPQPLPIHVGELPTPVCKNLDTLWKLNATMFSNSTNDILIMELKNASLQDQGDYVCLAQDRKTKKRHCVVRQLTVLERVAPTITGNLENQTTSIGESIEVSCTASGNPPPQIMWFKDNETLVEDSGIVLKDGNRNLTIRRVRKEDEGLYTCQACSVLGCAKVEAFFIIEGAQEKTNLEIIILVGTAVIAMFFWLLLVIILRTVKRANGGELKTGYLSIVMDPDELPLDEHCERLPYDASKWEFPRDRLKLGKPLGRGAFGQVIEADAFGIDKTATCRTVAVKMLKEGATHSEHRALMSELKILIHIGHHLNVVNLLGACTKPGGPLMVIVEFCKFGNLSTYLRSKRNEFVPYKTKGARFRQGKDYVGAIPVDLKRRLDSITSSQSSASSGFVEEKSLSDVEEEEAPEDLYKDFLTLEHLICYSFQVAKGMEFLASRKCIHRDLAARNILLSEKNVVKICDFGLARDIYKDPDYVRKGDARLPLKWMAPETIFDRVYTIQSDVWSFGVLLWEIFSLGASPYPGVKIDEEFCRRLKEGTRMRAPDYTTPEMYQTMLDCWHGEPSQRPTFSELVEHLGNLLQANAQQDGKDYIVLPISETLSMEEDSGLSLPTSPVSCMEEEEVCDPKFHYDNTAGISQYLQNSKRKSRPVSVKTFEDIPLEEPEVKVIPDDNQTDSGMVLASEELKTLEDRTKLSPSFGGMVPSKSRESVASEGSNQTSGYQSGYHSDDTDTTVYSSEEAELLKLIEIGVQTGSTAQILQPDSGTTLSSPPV
Chain of Serine/threonine-protein kinase B-raf (Homo sapiens), P15056 [V600E] (P15056 whole entry V600E): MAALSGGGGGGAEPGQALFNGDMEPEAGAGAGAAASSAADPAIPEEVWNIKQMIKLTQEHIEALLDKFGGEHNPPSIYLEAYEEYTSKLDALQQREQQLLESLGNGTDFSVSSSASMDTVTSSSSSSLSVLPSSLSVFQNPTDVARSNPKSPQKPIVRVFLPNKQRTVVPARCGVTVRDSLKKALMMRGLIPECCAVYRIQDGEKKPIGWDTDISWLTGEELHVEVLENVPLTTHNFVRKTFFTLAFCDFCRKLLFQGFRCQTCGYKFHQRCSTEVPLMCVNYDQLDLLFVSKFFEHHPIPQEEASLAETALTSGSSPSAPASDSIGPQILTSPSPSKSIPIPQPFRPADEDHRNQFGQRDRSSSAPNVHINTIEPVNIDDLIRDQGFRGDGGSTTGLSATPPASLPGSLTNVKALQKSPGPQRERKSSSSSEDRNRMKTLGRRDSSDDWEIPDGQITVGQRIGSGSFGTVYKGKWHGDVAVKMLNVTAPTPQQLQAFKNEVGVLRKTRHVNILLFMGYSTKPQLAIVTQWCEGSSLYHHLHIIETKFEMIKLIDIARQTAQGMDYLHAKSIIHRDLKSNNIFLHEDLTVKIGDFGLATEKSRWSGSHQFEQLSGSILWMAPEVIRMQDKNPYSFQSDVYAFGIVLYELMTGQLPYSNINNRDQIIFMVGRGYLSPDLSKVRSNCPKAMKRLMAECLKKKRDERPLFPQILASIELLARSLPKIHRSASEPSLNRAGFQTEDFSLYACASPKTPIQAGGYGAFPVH
Chain of Focal adhesion kinase 1 (Homo sapiens) (Q05397 2-1052 limits assumed): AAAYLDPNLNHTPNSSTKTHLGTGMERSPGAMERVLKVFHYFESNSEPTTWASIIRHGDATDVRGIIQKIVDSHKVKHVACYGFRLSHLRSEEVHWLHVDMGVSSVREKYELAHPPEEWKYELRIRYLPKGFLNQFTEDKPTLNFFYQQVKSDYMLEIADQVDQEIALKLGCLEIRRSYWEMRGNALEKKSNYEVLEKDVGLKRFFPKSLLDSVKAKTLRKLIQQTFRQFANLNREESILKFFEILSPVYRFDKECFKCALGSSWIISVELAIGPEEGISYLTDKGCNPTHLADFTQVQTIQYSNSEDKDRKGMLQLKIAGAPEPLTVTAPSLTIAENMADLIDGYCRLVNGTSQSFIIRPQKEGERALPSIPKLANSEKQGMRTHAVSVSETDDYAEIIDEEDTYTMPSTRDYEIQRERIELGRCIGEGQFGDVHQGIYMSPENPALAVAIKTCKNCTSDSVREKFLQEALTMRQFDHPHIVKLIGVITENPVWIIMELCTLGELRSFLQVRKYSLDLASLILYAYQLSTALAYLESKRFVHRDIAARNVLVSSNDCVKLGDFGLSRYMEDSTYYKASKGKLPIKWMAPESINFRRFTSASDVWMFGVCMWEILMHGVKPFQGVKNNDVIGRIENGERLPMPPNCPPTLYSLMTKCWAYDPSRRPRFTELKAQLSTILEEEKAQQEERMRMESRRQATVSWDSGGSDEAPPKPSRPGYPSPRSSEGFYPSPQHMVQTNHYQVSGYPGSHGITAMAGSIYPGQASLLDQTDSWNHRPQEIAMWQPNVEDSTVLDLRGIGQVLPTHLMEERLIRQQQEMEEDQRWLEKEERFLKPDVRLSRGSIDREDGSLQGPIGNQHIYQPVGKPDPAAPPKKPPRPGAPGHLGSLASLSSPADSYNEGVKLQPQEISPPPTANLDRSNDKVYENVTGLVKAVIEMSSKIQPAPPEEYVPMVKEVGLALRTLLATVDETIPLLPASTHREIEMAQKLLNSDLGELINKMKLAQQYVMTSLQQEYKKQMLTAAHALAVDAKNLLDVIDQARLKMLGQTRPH

In general, IC50 refers to the concentration that inhibits the measured activity by half. High values mean lower potency, low ones higher potency. Regarding `COc1ccc2c(c1)C(=O)c1ccc(Nc3ccc(F)cc3Cl)cc1CC2`, the figures for the IC50 in [1] and in experiment [2] were 40 nM and 5400 nM, respectively. For the same compound, the inhibition entry in [3], in [4], in experiment [5], in experiment [6], in experiment [7] and in experiment [8] was “inactive” throughout. The inhibition result in experiment [9], in experiment [10], in [11], in experiment [12], in [13] and in [14] was “inactive” each time. The inhibition entry in experiment [15], in experiment [16], in [17] and in experiment [18] was “inactive” throughout.

For the compound `O=C1c2ccc(Nc3ccc(F)cc3F)cc2CCc2c(OC[C@H](O)CO)cccc21`, the IC50 in experiment [1] came to 20 nM; in [2], 100000 nM. The inhibition entry in experiment [3], in experiment [4], in experiment [5], in [6], in experiment [7] and in experiment [8] was “inactive” throughout. Moreover, the inhibition result in [9], in experiment [10], in experiment [11], in experiment [12], in [13] and in experiment [14] was “inactive” in each case. Moreover, the inhibition entry in [15], in [16], in experiment [17] and in [18] was “inactive” each time.

Consider `COc1ccc2c(c1)C(=O)c1ccc(Nc3cc(F)cc(F)c3F)cc1CC2`, for which the IC50 in experiment [1] was determined as 50 nM; in experiment [2], 4300 nM. The inhibition result in experiment [3], in [4], in [5], in experiment [6], in experiment [7] and in experiment [8] was “inactive” throughout. Further, the inhibition result in experiment [9], in [10], in experiment [11], in [12], in experiment [13] and in [14] was “inactive” in each case. Also, the inhibition result in experiment [15], in [16], in [17] and in [18] was “inactive” throughout.

For the compound `CC1(C)OC[C@@H](CCOc2ccc3c(c2)C(=O)c2ccc(Nc4ccc(F)cc4F)cc2CC3)O1`, the IC50 was found to be 10 nM in experiment [1] and 320 nM in [2]. The inhibition entry in experiment [3], in [4], in experiment [5], in [6], in [7] and in experiment [8] was “inactive” each time. The inhibition entry in [9], in [10], in [11], in experiment [12], in experiment [13] and in experiment [14] was “inactive” each time. Besides, the inhibition entry in experiment [15], in experiment [16], in experiment [17] and in experiment [18] was “inactive” throughout.

Take `CC1(C)OC[C@H](COc2cccc3c2CCc2cc(Nc4ccccc4N)ccc2C3=O)O1`: the IC50 in experiment [1] came to 1040 nM; in experiment [2] it was 158000 nM. Besides, the inhibition entry in experiment [3], in [4], in [5], in [6], in experiment [7] and in experiment [8] was “inactive” each time. Besides, the inhibition result in experiment [9], in experiment [10], in experiment [11], in experiment [12], in [13] and in experiment [14] was “inactive” throughout. The inhibition entry in experiment [15], in experiment [16], in experiment [17] and in [18] was “inactive” throughout.

With `O=C1c2ccc(Nc3ccc(F)cc3F)cc2CCc2ccc(OCCCN3CCOCC3)cc21`, the results for the IC50 in experiment [1] and in experiment [2] were 8 nM and 80 nM, respectively. Further, the inhibition result in [3], in experiment [4], in experiment [5], in experiment [6], in experiment [7] and in experiment [8] was “inactive” each time. For the same compound, the inhibition result in [9], in [10], in [11], in [12], in experiment [13] and in experiment [14] was “inactive” each time. Also, the inhibition entry in [15], in experiment [16], in experiment [17] and in [18] was “inactive” throughout.

For the compound `O=C1c2ccc(Nc3ccc(F)cc3F)cc2CCc2c(OCCN3CCOCC3)cccc21`, the IC50 in experiment [1] came out at 30 nM; in experiment [2], 200000 nM. Moreover, the inhibition entry in experiment [3], in experiment [4], in experiment [5], in [6], in experiment [7] and in [8] was “inactive” each time. Further, the inhibition result in experiment [9], in experiment [10], in [11], in experiment [12], in experiment [13] and in experiment [14] was “inactive” throughout. Besides, the inhibition result in experiment [15], in experiment [16], in [17] and in [18] was “inactive” throughout.
